{
  "source": "patent US20090312423A1",
  "about": "“THERAPEUTIC TREATMENT FOR LUNG CONDITIONS” (Vanderbilt University, priority 2008, published 2009)",
  "key": {"[1]": {"experiment": "Plasma amino acid measurements", "type": "in vivo, piglets", "conditions": "for Plasma Citrulline: mean ± SEM", "description": "On the day of hemodynamic measurements and/or lung perfusion study, for control and both L-citrulline treated and untreated chronic hypoxic animals, blood was drawn prior to starting the study and the plasma frozen at -80 degrees for later determination of amino acid levels. For the L-citrulline treated hypoxic animals, the time of obtaining the blood sample was approximately 12 hours after the last dose of L-citrulline so was a trough level. In some of the L-citrulline treated animals (n=3), after blood sampling for a trough level, a dose of L-citrulline was given via nasogastric tube. Following this dose, blood samples were drawn every 30 minutes for 90 minutes (the length of the in vivo studies). All samples were spun, the plasma collected and frozen at -80 degrees for amino acid analysis. Concentrations of plasma citrulline and arginine were determined by amino-acid analysis on protein-free extracts. Amino acids were separated by cation-exchange chromatography using a Hitachi […] amino acid analyzer (Hitachi USA, San Jose, Calif., United States of America). Calibration of the analyzer was performed before testing of piglet samples."}, "[2]": {"test_system": "nitrite/nitrate (NOx-)", "experiment": "Isolated lung perfusion, perfusate NOx- measurement", "type": "in vivo, piglets", "conditions": "FIG. 6; p=0.04; no difference from normoxic controls", "description": "The lungs were isolated and perfused in situ with a Krebs Ringer bicarbonate (KRB) solution containing 5% dextran, mol. wt. 70,000, at 37° C. and ventilated with a normoxic gas mixture (21% O2 and 5% CO2) as previously described. Fike, C. D. et al., J Appl Physiol (2000) 88:1797-1803. The lungs were perfused for 30-60 min until a stable pulmonary arterial pressure was achieved. Perfusate samples (1 ml) were then removed from the left atrial cannula every 10 min for a 60-minute period. The perfusate samples were centrifuged, and the supernatant was stored at −80° C. for future analysis of nitrite/nitrate (NOx^−) concentrations as described below. At the end of the perfusion, the volume of perfusate remaining in the circuit and reservoir was measured. […]\nThe perfusate NOx^− […] was calculated for each collection time by multiplying the perfusate concentration of NOx^− at that sample collection time by the volume of the system (perfusion circuit+reservoir) at the sample collection time plus the amount of NOx^− removed with all previous samples. The rate of NOx^− production was determined from the slope of a linear regression line fit to the amount of NOx^− in the perfusate versus time for the first 60 minutes of the collection period."}, "[3]": {"test_system": "chronically hypoxic piglets", "experiment": "In vivo hemodynamics in newborn piglets exposed to 10 days of chronic hypoxia", "excerpt": "A total of 17 hypoxic and 17 control piglets were studied. Control animals were studied on the day of arrival from the farm at 12 days of age. The hypoxic pigs (2 days old) were placed in a normobaric hypoxic chamber for 10 to 11 days. Normobaric hypoxia was provided using compressed air and nitrogen to create inspired oxygen of 8-11% (PO2 60-72 Torr) and CO2 was maintained at 3-6 Torr by absorption with soda lime. The animals were monitored with daily weights and physical exam twice daily. They were fed ad lib with sow milk replacer from a feeding device in the cage.\nSix of the seventeen hypoxic piglets were supplemented with oral L-citrulline starting on the first day of the hypoxic exposure. L-citrulline supplementation was provided at a dose of 0.13-gm/kilogram body weight twice a day using a syringe to deliver the dose orally. If it appeared to study personnel that the piglet had not ingested the majority of a dose, it was repeated. L-citrulline was mixed using a preparation (Sigma Pharmaceuticals, St. Louis, Mo., United States of America, 98% purity) at a concentration of 0.13 grams per milliliter of distilled water and when completely dissolved passing this solution through a 0.20 Micron filter.\nIn vivo hemodynamics were measured in 6 of the control piglets and all of the hypoxic piglets. […] Pulmonary artery pressure, left ventricular end diastolic pressure, and cardiac output were measured. Cardiac output was measured by a thermodilution technique (model 9520 thermodilution cardiac output computer, Edwards Laboratory, Irvine, Calif., United States of America) using a thermistor in the aortic arch and the left ventricle catheter as an injection port. Cardiac output was measured at end expiration as the mean of three injections of 3 ml of normal saline (0° C.). Exhaled NO was measured as described below. […]\nPulmonary vascular resistance was calculated from the in vivo hemodynamic measurements: (Pulmonary arterial pressure−left ventricular end diastolic pressure)÷(Cardiac output/body weight). […]"}, "[4]": {"test_system": "exhaled NO", "experiment": "Exhaled nitric oxide measurement in anesthetized piglets", "type": "in vivo", "conditions": "FIG. 5; p-value 0.032; not different from control (p=0.124)", "description": "In vivo hemodynamics were measured in 6 of the control piglets and all of the hypoxic piglets. For these measurements, the animals were weighed and then preanesthetized with Ketamine (15 mg/kg) and Acepromazine (2 mg/kg) intramuscularly. A tracheostomy, venous and arterial catheters, and thermistor were then placed as previously described using intravenous pentobarbital for sedation. Fike, C. D. et al., J Appl Physiol (2000) 88:1797-1803. Pulmonary artery pressure, left ventricular end diastolic pressure, and cardiac output were measured. Cardiac output was measured by a thermodilution technique (model 9520 thermodilution cardiac output computer, Edwards Laboratory, Irvine, Calif., United States of America) using a thermistor in the aortic arch and the left ventricle catheter as an injection port. Cardiac output was measured at end expiration as the mean of three injections of 3 ml of normal saline (0° C.). Exhaled NO was measured as described below. […]\nFor exhaled NO measurement in anesthetized animals, expiratory gas was sampled two to three times for 3 minute periods each and passed through a chemiluminescence analyzer (model 270B NOA; Sievers, Boulder, Colo., United States of America) to measure NO concentration as previously described. […] Exhaled NO production (nmol/min) was calculated using minute ventilation and the measured exhaled NO concentration."}},
  "data": [
    {"smiles": "NC(=O)NCCC[C@H](N)C(=O)O", "note": "[L-citrulline]", "values": [
      {"measurement": "Plasma Citrulline", "setting": "[1]; 90 minutes after administration of L-citrulline dose, N = 3", "result": "219 ± 36"},
      {"measurement": "plasma L-citrulline level relative to untreated chronic hypoxic animals", "setting": "[1]; ninety minutes after a dose, p=0.001", "result": "almost twice"},
      {"measurement": "plasma arginine levels vs untreated hypoxic animals", "setting": "[1]; regardless of the time the sample was drawn", "result": "not higher"},
      {"measurement": "Plasma Citrulline", "setting": "[1]; trough, approximately twelve hours after L-citrulline dose, N = 6", "result": "161 ± 5"},
      {"measurement": "NOx- accumulation rate in lung perfusate vs untreated hypoxic animals", "setting": "[2]", "result": "significantly higher"},
      {"measurement": "pulmonary artery pressure vs untreated hypoxic animals", "setting": "[3]; FIG. 3, p-value of 0.01, not different from normoxic controls (p=0.08)", "result": "significantly lower"},
      {"measurement": "calculated pulmonary vascular resistance", "setting": "[3]; FIG. 4, L-citrulline treated hypoxic animals, significantly lower than untreated hypoxic (p-value of 0.001)", "result": "0.071±0.003"},
      {"measurement": "development of pulmonary hypertension", "setting": "[3]; newborn piglets exposed to 10 days of chronic hypoxia, oral supplementation", "result": "ameliorates the development of pulmonary hypertension"},
      {"measurement": "exhaled NO output vs untreated hypoxic animals", "setting": "[4]", "result": "higher"}
    ]}
  ]
}
